# “Also recorded” adds a separate entry of the source.
# Experiments:
# S1PR2 = S1PR2 (Homo sapiens, UniProt O95136); settings: cited from earlier work
# Fzd4−/− mice = experiment: Retinal vasculature in Fzd4−/− mouse model of FEVR (flat-mounted retinas, iso-lectin B4 staining, confocal microscopy); type: in vivo; settings: 0.5 mg/kg intraperitoneally every second day from P7 to P25, retinas at P25
# Procedure: FIG. 7 illustrates that treatment of Fzd4^−/− mice with the S1PR2 antagonist JTE-013 ameliorates the FEVR phenotype. Fzd4^−/− mice were injected with 0.5 mg/kg JTE-013 intraperitoneally every second day from P7 to P25. Retinas were flat mounted at P25 and the vasculature visualized by confocal microscopy subsequent to staining with iso-lectin B4 AlexaFluor 594.
# Fzd4^−/− mice were injected with 0.5 mg/kg JTE-013 intraperitoneally every second day from P7 to P25. Using standard protocols, retinas were flat mounted at P25 and the vasculature visualized by confocal microscopy subsequent to staining with iso-lectin B4 AlexaFluor 594. (Vascular development in the retina and inner ear: control by Norrin and Frizzled-4, a high-affinity ligand-receptor pair. Xu Q, Wang Y, Dabdoub A, Smallwood P M, Williams J, Woods C, Kelley M W, Jiang L, Tasman W, Zhang K, Nathans J. Cell 116, 883-95 (2004).)
# Sequence of S1PR2 (O95136 whole entry): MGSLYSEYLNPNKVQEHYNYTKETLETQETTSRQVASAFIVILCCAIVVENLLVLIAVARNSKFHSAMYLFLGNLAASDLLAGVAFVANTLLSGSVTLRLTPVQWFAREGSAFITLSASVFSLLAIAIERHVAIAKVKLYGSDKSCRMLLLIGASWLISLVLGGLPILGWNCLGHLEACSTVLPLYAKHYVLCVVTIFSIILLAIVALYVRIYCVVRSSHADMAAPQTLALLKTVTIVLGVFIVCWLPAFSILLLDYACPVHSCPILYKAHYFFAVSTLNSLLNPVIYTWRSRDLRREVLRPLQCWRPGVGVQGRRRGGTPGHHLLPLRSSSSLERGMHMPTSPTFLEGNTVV
compound,measurement,setting,value
"Cc1nn(C)c2nc(NNC(=O)Nc3cc(Cl)nc(Cl)c3)cc(C(C)C)c12 [JTE-013, 1-(2,6-dichloro-4-pyridyl)-3-[(4-isopropyl-1,3-dimethyl-pyrazolo[3,4-b]pyridin-6-yl)amino]urea]",affinity for S1PR2,S1PR2,18 nM
same,specificity for S1PR2 versus other S1PRs,S1PR2,100 fold
same,retinal vascular patterning / FEVR retinal vascularization defects,Fzd4−/− mice,substantial restoration of normal retinal vascular patterning; also recorded: able to ameliorate FEVR retinal vascularization defects

# — patent publication US10487082B2, “S1PR2 antagonists and uses therefor” (DALHOUSIE UNIVERSITY, priority 2015, dated 2019)
